From US20140357577A1, “HIV Membrane Fusion Inhibitors” (priority 2011, published 2014)
Starred links: 1 amine or outer side, 2 acyl side, 3 side chain; linkers in the order of their positions; H or OH if unused. Non-standard residues stand in square brackets, D forms with d. No end group written: not given here. *: point of attachment. cholesteryl‑oxycarbonylmethyl = CC(C)CCC[C@@H](C)[C@H]1CC[C@H]2[C@@H]3CC=C4C[C@@H](OC(=O)C*)CC[C@]4(C)[C@H]3CC[C@]12C; C(Bzl) = O=C([C@H](CSCc1ccccc1)N[*:1])[*:2]; tBuAla = CC(C)(C)C[C@H](N)C(=O)O; Suc = O=C(CCC(=O)[*:2])[*:1]; Isovaleryl = CC(C)CC(=O)*; hCys = N[C@@H](CCS)C(=O)O; Nva = CCC[C@H](N)C(=O)O; Tba = not defined here

Assays:
[1] = system: HIV-IIIB + 50% HS; experiment: Standard AVE (50% Human Serum), HIV-1 replication assay in MT4-LTR-EGFP cells; format: cell-based; conditions: fold change vs EC50 in the assay without human serum
Summary of the method: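 MT4-LTR-EGFP cells infected with HIV-1 alongside 4-fold serial compound dilutions in 50% human serum, 3 days at 37 °C. EGFP read by laser-scanning microscopy; EC50 by linear interpolation against log concentration, reported as fold change versus EC50 without serum.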

[2] = system: HIV mutant virus strain HXB2D with mutation V38A in the gp41 gene; experiment: Standard AVE, HXB2D site directed mutant V38A; format: cell-based, HIV-1; conditions: fold change vs wild type strain HXB2D
Excerpt: • Standard Anti-Viral-Experiment “AVE” (wild type HIV strain IIIB+HIV strain HXB2D side directed mutants V38A and Q40H)
The HIV-1 replication assay measures virus replication (HIV wild type virus strain 111B or HXB2D, or a HIV mutant virus strain HXB2D with mutation V38A or Q40H in the gp41 gene) as an induction of enhanced green fluorescent protein (EGFP) expression. The indicator MT4-LTR-EGFP cells contain an EGFP gene under the control of the HIV-1 LTR promoter sequence. Successful HIV-1 infection results in viral Tat protein expression and subsequent induction of EGFP expression. Compounds/peptides inhibiting HIV-1 infection are expected to reduce EGFP expression as compared to the untreated HIV-infected control.
Serial 4-fold dilutions of test compounds/peptides were mixed with HIV-1 (IIIB, HXB2D, or a HXB2D mutant virus (V38A or Q40H)) and MT4-LTR-EGFP cells and incubated at 37° C. After 3 days, the wells were examined for EGFP expression using an argon laser-scanning microscope. The effective compound/peptide concentration inhibiting 50% of the virus-induced EGFP signal (EC50) was determined by linear interpolation of the EGFP signal vs. logarithm of the compound concentration; (T20, C34 and Sifuvirtide were added as reference compounds). For the V38A and Q40H mutant viruses, results were reported as a fold change in EC50, as compared with a drug-susceptible wild type strain HXB2D, which forms the backbone of the mutant virus. • Standard AVE (50% Human Serum)

[3] = system: HIV wild type virus strain IIIB; experiment: Standard Anti-Viral-Experiment (AVE), HIV-1 replication assay in MT4-LTR-EGFP cells, wild type IIIB; format: cell-based; conditions: 3 days, EGFP signal
Summary of the method: (§1)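 MT4-LTR-EGFP cells infected with HIV-1 IIIB, HXB2D or HXB2D gp41 mutants V38A/Q40H alongside serial 4-fold compound dilutions, 3 days at 37° C. EGFP read by laser-scanning microscopy; EC50 by linear interpolation against log concentration. Mutant results given as fold change in EC50 versus wild-type HXB2D.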

[4] = system: HIV mutant virus strain HXB2D with mutation Q40H in the gp41 gene; experiment: Standard AVE, HXB2D site directed mutant Q40H; format: cell-based, HIV-1; conditions: fold change vs wild type strain HXB2D
Summary of the method: as §1

Row | Substance | HIV-IIIB + 50% HS (Fold change in EC50) [1] | HIV-HXB2D V38A mutant (fold change in EC50) [2] | EC50 [3] [nM] | HIV-HXB2D Q40H mutant (fold change in EC50) [4]
1 | Ac-A-C(Bzl)-YAALIEALIRAAQEQQEKNEAALR-NH2 ({Ac-Ala-C(Bzl)}-YAALIEALIRAAQEQQEKNEAALR-NH2; SMILES CC[C@H](C)[C@H](NC(=O)[C@H](CC(C)C)NC(=O)[C@H](C)NC(=O)[C@H](CCC(=O)O)NC(=O)[C@@H](NC(=O)[C@H](CC(C)C)NC(=O)[C@H](C)NC(=O)[C@H](C)NC(=O)[C@H](Cc1ccc(O)cc1)NC(=O)[C@H](CSCc1ccccc1)NC(=O)[C@H](C)NC(C)=O)[C@@H](C)CC)C(=O)N[C@@H](CCCNC(=N)N)C(=O)N[C@@H](C)C(=O)N[C@@H](C)C(=O)N[C@@H](CCC(N)=O)C(=O)N[C@@H](CCC(=O)O)C(=O)N[C@@H](CCC(N)=O)C(=O)N[C@@H](CCC(N)=O)C(=O)N[C@@H](CCC(=O)O)C(=O)N[C@@H](CCCCN)C(=O)N[C@@H](CC(N)=O)C(=O)N[C@@H](CCC(=O)O)C(=O)N[C@@H](C)C(=O)N[C@@H](C)C(=O)N[C@@H](CC(C)C)C(=O)N[C@@H](CCCNC(=N)N)C(N)=O) [Peptide 4] | 2 | 74 | 10 | –
2 | Ac-ACY-Cha-ACIEALIRAAQEQQEKNEAALR-NH2 [Peptide 59] | 3 | 18 | 3 | 44
3 | Ac-ACY-Tba-ACIEALIRAAQEQQEKNEAALR-NH2 [Peptide 60] | 3 | 18 | 5 | –
4 | Ac-ACYAACIEALIRAAQEQQEKNEAALRGSGC(cholesteryl-oxycarbonylmethyl)-NH2 [81] (Ac-ACYAACIEALIRAAQEQQEKNEAALRGSGC(cholesteryl‑oxycarbonylmethyl)-NH2; cysteine pairing not given here) [Peptide 81] | 4 | 4 | 0.3 | 24
5 | Ac-ACYAACIEALIRAAQEQQEKNEAALRGSGC(cholesteryl-oxycarbonylmethyl)-NH2 [87] (Ac-ACYAACIEALIRAAQEQQEKNEAALRGSGC(cholesteryl‑oxycarbonylmethyl)-NH2; cysteine pairing not given here) [Peptide 87] | 14 | 1 | 0.1 | 5
6 | Ac-A[hCys]YAA[hCys]IEALIRAAQEQQEKNEAALR-NH2 (cysteine pairing not given here) [Peptide 77] | 3 | 39 | 6 | 304
7 | Ac-A[hCys]YAA[hCys]IEALIRAAQEQQEKNEAALR-NH2 (cysteine pairing not given here) [Peptide 78] | 3 | 61 | 5 | 355
8 | Ac-A[hCys]YAA[hCys]IEALIRKAQEQQEKNEAALR-NH2 (cysteine pairing not given here) [Peptide 79] | 2 | 27 | 5 | 284
9 | Ac-A[hCys]YAA[hCys]IEALIRKAQEQQEKNEAALR-NH2 (cysteine pairing not given here) [Peptide 80] | 2 | 40 | 2 | 375
10 | Isovaleryl-E-C(Bzl)-YLALIEELIRKAQEQQEKNEAALR-NH2 ({Isovaleryl-Glu-C(Bzl)}-YLALIEELIRKAQEQQEKNEAALR-NH2; SMILES CC[C@H](C)[C@H](NC(=O)[C@H](CC(C)C)NC(=O)[C@H](C)NC(=O)[C@H](CC(C)C)NC(=O)[C@H](Cc1ccc(O)cc1)NC(=O)[C@H](CSCc1ccccc1)NC(=O)[C@H](CCC(=O)O)NC(=O)CC(C)C)C(=O)N[C@@H](CCC(=O)O)C(=O)N[C@@H](CCC(=O)O)C(=O)N[C@@H](CC(C)C)C(=O)N[C@H](C(=O)N[C@@H](CCCNC(=N)N)C(=O)N[C@@H](CCCCN)C(=O)N[C@@H](C)C(=O)N[C@@H](CCC(N)=O)C(=O)N[C@@H](CCC(=O)O)C(=O)N[C@@H](CCC(N)=O)C(=O)N[C@@H](CCC(N)=O)C(=O)N[C@@H](CCC(=O)O)C(=O)N[C@@H](CCCCN)C(=O)N[C@@H](CC(N)=O)C(=O)N[C@@H](CCC(=O)O)C(=O)N[C@@H](C)C(=O)N[C@@H](C)C(=O)N[C@@H](CC(C)C)C(=O)N[C@@H](CCCNC(=N)N)C(N)=O)[C@@H](C)CC) [Peptide 18] | 3 | 3 | 1 | 53
11 | Suc-ACY-Abu-ACIEALIRAAQEQQEKNEAALR-NH2 [Peptide 49] | 0.6 | 33 | 6 | –
12 | Suc-ACY-Nva-ACIEALIRAAQEQQEKNEAALR-NH2 [Peptide 44] | 1 | 15 | 2 | 160
13 | Suc-ACYLAC)EELIRKAQEQQEKNEAALR-NH2 [Peptide 31] | 0.4 | 14 | 1 | 238
14 | Suc-ACYLACIEALIRA-Abu-QEQQEKNEAALR-NH2 [Peptide 47] | 2 | 17 | 1 | 261
15 | Suc-ACYLACIEALIRA[Nva]QEQQEKNEAALR-NH2 (cysteine pairing not given here) [Peptide 46] | 2 | 6 | 1 | 42
16 | Suc-ANYLALIEAL-Tba-RAAQEQQEKNEAALR-NH2 (reading uncertain; also: chains 1 and 2 are one peptide joined through Tba residue, printed as Suc-ANYLALIEAL-Tba-RAAQEQQEKNEAALR-NH2) [Peptide 11] | 0.8 | 26 | 1 | 368
17 | Suc-CYLACIEELIRKAGEQQEKNEAAL-Tba-NH2 (Suc-CYLACIEELIRKAGEQQEKNEAAL-{Tba-NH2}; cysteine pairing not given here; reading uncertain; also: printed as Suc-CYLACIEELIRKAGEQQEKNEAAL-Tba-NH2) [Peptide 25] | 3 | 31 | 0.6 | 352
18 | Suc-CYLACIEELIRKAQEQQEKNEAAL-Tba-NH2 [23] (Suc-CYLACIEELIRKAQEQQEKNEAAL-{Tba-NH2}; cysteine pairing not given here; reading uncertain; also: printed as Suc-CYLACIEELIRKAQEQQEKNEAAL-Tba-NH2) [Peptide 23] | 0.6 | 45 | 1 | 807
19 | Suc-CYLACIEELIRKAQEQQEKNEAAL-Tba-NH2 [24] (Suc-CYLACIEELIRKAQEQQEKNEAAL-{Tba-NH2}; cysteine pairing not given here; reading uncertain; also: printed as Suc-CYLACIEELIRKAQEQQEKNEAAL-Tba-NH2) [Peptide 24] | 1 | 26 | 1 | 321
20 | Suc-CYLACIEELIRKAQEQQEKNEAAL-Tba-NH2 [27] (Suc-CYLACIEELIRKAQEQQEKNEAAL[tBuAla]-NH2; cysteine pairing not given here) [Peptide 27] | 0.7 | 28 | 3 | 307
21 | Suc-Hcy-YLA-Hcy-IEALIRAAREQQEKNEALLR-NH2 (Suc-[hCys]YLA[hCys]IEALIRAAREQQEKNEALLR-NH2; also: cyclised, bridge not given here) [Peptide 28] | 4 | 4 | 0.6 | 25
